Assay results from PubChem BioAssay AID2060497 (Molecular Pharmacology Branch, DTP, NCI, 2025).
Values joined by “and” are separate entries in the source; they are usually repeats but may differ in a detail not shown here. Identical values can stand only once.

Test system: 317291-083-R-J1-PDC complex spheroids, viability
Assay: Anticancer human tumor 317291-083-R-J1-PDC patient-derived soft tissue sarcoma cell line growth inhibition [GQUAD]
Conditions: for viability, T/C: stronger effect = lower value
Text: DNA G-quadruplex Stabilizer Agents in Combinations in Complex Spheroids
A high-throughput screen of multi-cell type tumor spheroids was designed to identify active combinations of DNA G-quadruplex stabilizer agents and targeted small molecules. Complex spheroids include a stromal component modeled by human endothelial cells (HUVEC) and fibroblasts modeled by human mesenchymal stem cells (MSCs). The concentration ranges selected for each drug and investigational agent were based upon clinically achievable concentrations if the clinical Cmax of the agent was known.
Compounds. The drugs and investigational agents: pidnarulex (CX-5461; NSC782164), APTO-253 (NSC789042), BRACO-19 (NSC847499), peposertib (NSC802822), ceralasertib (NSC780249), elimusertib (NSC800525), camonsertib (NSC841442), AZD-1390 (NSC803789), olaparib (NSC753686), talazoparib (NSC767125), ART-558 (NSC835418), sotorasib (NSC818433), MRTX-1133 (NSC836407), SN-38 (NSC673596), topotecan (NSC609699), etoposide (NSC141540), doxorubicin (NSC123127), gemcitabine (NSC613327), 5-fluorouracil (NSC19893), paclitaxel (NSC125973), vemurafenib (NSC761431), panobinostat (NSC761190), R-306465 (JNJ-16241199; NSC773264), adavosertib (NSC754352), TP-3654 (NSC805149), carboplatin (NSC241240), KSQ-4279 (NSC840948), and staurosporine (NSC755774) were obtained from the National Cancer Institute (NCI) Developmental Therapeutics Program Chemical Repository (34). The FDA-approved anticancer drug set is available from the NCI Developmental Therapeutics Program. […] The stock solutions were prepared in dimethyl sulfoxide (DMSO, Sigma-Aldrich, St. Louis, MO, cat. D2650) at 800-fold the tested concentration and stored at -70 degrees C prior to their use. All drugs and investigational agents were tested over a range starting from a high concentration at or near the clinical Cmax and decreasing in half-log increments. If the clinical Cmax for an agent had not been determined, the highest concentration tested was 10 microM.
2.3 Cell Culture. All cells were maintained in an incubator at 37 degrees C and 5% CO2 with 95% humidity. The PDC lines were cultured according to standard operating procedures established by the NCI PDMR. All PDCs were thawed and cultured in Matrigel-coated flasks prepared with a working solution of 1X Ham's F-12 nutrient mix, without supplementation (Invitrogen, cat. 11765054), 100 U/mL penicillin-streptomycin (Invitrogen, cat. 15140122), and 2.5% Matrigel (Corning Inc., cat. 354248) for the first three passages. The 857933-349-R-J2-PDC line was cultured in 6C/Colon 1B media, which includes advanced DMEM/F-12 (Thermo Fisher Scientific, cat. 12634028), 10 mM HEPES (Thermo Fisher Scientific, cat. 15630080), 1X GlutaMAX supplement (Thermo Fisher Scientific, cat. 35050061), 0.1 mg/mL primocin (InvivoGen, cat. ant-pm-2), 10% defined fetal bovine serum, heat inactivated (HyClone Laboratories Inc., cat. SH30070.03HI), 50% L-WRN conditioned media (ATCC, cat. CRL-3276), 1.25 mM N-Acetyl-L-cysteine (Sigma-Aldrich, cat. A9165), 10 mM nicotinamide (Sigma-Aldrich, cat. N0636), 1X B-27 supplement (Thermo Fisher Scientific, cat. 17504044), 1X N-2 supplement (Thermo Fisher Scientific, cat. 17502048), 10 microM Y-27632 dihydrochloride (Tocris Bioscience, cat. 1254), and 50 ng/mL human EGF recombinant protein (Thermo Fisher Scientific, cat. PHG0311). The 485176-168-R4-J1-PDC line was cultured in Panc media, which includes all 6C/Colon 1B media components plus 100 ng/mL human FGF-10 (Thermo Fisher Scientific, cat. 100-26), 500 nM SB-431542 (Selleckchem, cat. S1067), and gastrin (Tocris, cat. 3006).
[…]

[1] = curve of first compound, second compound 0.0316 µM
[2] = curve of first compound, second compound 0.1 µM
[3] = curve of first compound, second compound 0.316 µM
[4] = curve of first compound, second compound 1 µM
[5] = curve of first compound, second compound 3.16 µM
[6] = curve of first compound, second compound 10 µM
[7] = second compound 0.0316 µM, first compound 0.0316 µM
[8] = second compound 0.0316 µM, first compound 0.316 µM
[9] = second compound 0.1 µM, first compound 0.0316 µM
[10] = second compound 0.1 µM, first compound 0.316 µM
[11] = second compound 0.316 µM, first compound 0.0316 µM
[12] = second compound 0.316 µM, first compound 0.316 µM
[13] = second compound 1 µM, first compound 0.0316 µM
[14] = second compound 1 µM, first compound 0.316 µM
[15] = second compound 3.16 µM, first compound 0.0316 µM
[16] = second compound 3.16 µM, first compound 0.316 µM
[17] = second compound 10 µM, first compound 0.0316 µM
[18] = second compound 10 µM, first compound 0.316 µM
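Further: spheroids exposed to compounds for one week before readout.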
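Wherever viability, T/C is given: percent viability relative to DMSO vehicle wells taken as 100%.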

Molecule `Cc1[nH]c2ccccc2c1CCNCc1ccc(/C=C/C(=O)NO)cc1` + Cc1cnc(CNC(=O)c2c(=O)c3ccc(N4CCCN(C)CC4)nc3n3c2sc2ccccc23)cn1 has an IC50 [1] of 54.2 nM, an IC50 [2] of 20.1 nM and an IC50 [3] of 1.57 nM. The IC50 [4] was < 0.999 nM, the IC50 [5] was < 0.999 nM and the IC50 [6] was < 0.999 nM. The viability, T/C (second compound 0.0316 µM, first compound 0.000999 µM) was 101%, the viability, T/C (second compound 0.0316 µM, first compound 0.00316 µM) was 80.9% and the viability, T/C (second compound 0.0316 µM, first compound 0.00999 µM) was 103%. The viability, T/C [7] was 80%, the viability, T/C (second compound 0.0316 µM, first compound 0.0999 µM) was 15.5% and the viability, T/C [8] was 0.98%. The viability, T/C (second compound 0.1 µM, first compound 0.000999 µM) was 67.3%, the viability, T/C (second compound 0.1 µM, first compound 0.00316 µM) was 54.2% and the viability, T/C (second compound 0.1 µM, first compound 0.00999 µM) was 55.2%. For the same molecule, the viability, T/C [9] was 46.1%, the viability, T/C (second compound 0.1 µM, first compound 0.0999 µM) was 12.2% and the viability, T/C [10] was 0.49%. For the same molecule, the viability, T/C (second compound 0.316 µM, first compound 0.000999 µM) was 59%, the viability, T/C (second compound 0.316 µM, first compound 0.00316 µM) was 35.4% and the viability, T/C (second compound 0.316 µM, first compound 0.00999 µM) was 31.4%. It also gave a viability, T/C [11] of 25.5%, a viability, T/C (second compound 0.316 µM, first compound 0.0999 µM) of 14.5% and a viability, T/C [12] of 0.46%. It also gave a viability, T/C (second compound 1 µM, first compound 0.000999 µM) of 34.4%, a viability, T/C (second compound 1 µM, first compound 0.00316 µM) of 20.5% and a viability, T/C (second compound 1 µM, first compound 0.00999 µM) of 34.5%. The viability, T/C [13] was 26%, the viability, T/C (second compound 1 µM, first compound 0.0999 µM) was 7.38% and the viability, T/C [14] was 0.1%. The viability, T/C (second compound 3.16 µM, first compound 0.000999 µM) was 27.3%, the viability, T/C (second compound 3.16 µM, first compound 0.00316 µM) was 41.7% and the viability, T/C (second compound 3.16 µM, first compound 0.00999 µM) was 50%. It also gave a viability, T/C [15] of 0.4%, a viability, T/C (second compound 3.16 µM, first compound 0.0999 µM) of 0.16% and a viability, T/C [16] of 0.22%. The viability, T/C (second compound 10 µM, first compound 0.000999 µM) was 3.89%, the viability, T/C (second compound 10 µM, first compound 0.00316 µM) was 11.2% and the viability, T/C (second compound 10 µM, first compound 0.00999 µM) was 0.33%. It also gave a viability, T/C [17] of 1.81%, a viability, T/C (second compound 10 µM, first compound 0.0999 µM) of 0.47% and a viability, T/C [18] of 0.44%.

`CC1COCCN1c1cc(-c2ccnn2C)c2ccnc(-c3ccn[nH]3)c2n1` (stereo unspecified) + CN(C)c1ccc(Nc2c3ccc(NC(=O)CCN4CCCC4)cc3nc3cc(NC(=O)CCN4CCCC4)ccc23)cc1 gave an IC50 [1] of 64.7 nM, an IC50 [2] of 66.8 nM and an IC50 [3] of 42.4 nM. The IC50 [4] was < 31.6 nM, the IC50 [5] was < 31.6 nM and the IC50 [6] was < 31.6 nM. The viability, T/C [7] was 87.2%, the viability, T/C (second compound 0.0316 µM, first compound 0.1 µM) was 27.4% and the viability, T/C [8] was 17%. The viability, T/C (second compound 0.0316 µM, first compound 1 µM) was 13.8%, the viability, T/C (second compound 0.0316 µM, first compound 3.16 µM) was 13.8% and the viability, T/C (second compound 0.0316 µM, first compound 10 µM) was 14.2%. For the same molecule, the viability, T/C [9] was 84.5%, the viability, T/C (second compound 0.1 µM, first compound 0.1 µM) was 31.4% and the viability, T/C [10] was 14.9%. The viability, T/C (second compound 0.1 µM, first compound 1 µM) was 13.7%, the viability, T/C (second compound 0.1 µM, first compound 3.16 µM) was 12.1% and the viability, T/C (second compound 0.1 µM, first compound 10 µM) was 14%. It also gave a viability, T/C [11] of 59.1%, a viability, T/C (second compound 0.316 µM, first compound 0.1 µM) of 24.3% and a viability, T/C [12] of 15.2%. The viability, T/C (second compound 0.316 µM, first compound 1 µM) was 11.2%, the viability, T/C (second compound 0.316 µM, first compound 3.16 µM) was 15.5% and the viability, T/C (second compound 0.316 µM, first compound 10 µM) was 19.9%. The viability, T/C [13] was 41.1%, the viability, T/C (second compound 1 µM, first compound 0.1 µM) was 17% and the viability, T/C [14] was 33.6%. The viability, T/C (second compound 1 µM, first compound 1 µM) was 10.3%, the viability, T/C (second compound 1 µM, first compound 3.16 µM) was 7.25% and the viability, T/C (second compound 1 µM, first compound 10 µM) was 6.88%. For the same molecule, the viability, T/C [15] was 25.8%, the viability, T/C (second compound 3.16 µM, first compound 0.1 µM) was 7.15% and the viability, T/C [16] was 5.62%. It also gave a viability, T/C (second compound 3.16 µM, first compound 1 µM) of 4.31%, a viability, T/C (second compound 3.16 µM, first compound 3.16 µM) of 3.37% and a viability, T/C (second compound 3.16 µM, first compound 10 µM) of 2.05%. It also gave a viability, T/C [17] of 3.62%, a viability, T/C (second compound 10 µM, first compound 0.1 µM) of 5.3% and a viability, T/C [18] of 7.04%. For the same molecule, the viability, T/C (second compound 10 µM, first compound 1 µM) was 4%, the viability, T/C (second compound 10 µM, first compound 3.16 µM) was 1.52% and the viability, T/C (second compound 10 µM, first compound 10 µM) was 0.66%.

For `O=C(NO)c1cnc(N2CCN(S(=O)(=O)c3ccc4ccccc4c3)CC2)nc1`, the viability, T/C (compound 0.0316 µM) was 109% and 96.9% and 93.2%, the viability, T/C (compound 0.1 µM) was 62.2% and 72.5% and 96.7% and the viability, T/C (compound 0.316 µM) was 8.74% and 8.1% and 24.6%. The viability, T/C (compound 1 µM) was 0.24% and 0.48% and 0.9%, the viability, T/C (compound 3.16 µM) was 0.11% and 0.05% and 0.04% and the viability, T/C (compound 10 µM) was 0.29% and 1.01% and 0.08%. For the same molecule, the IC50 (curve of compound) was 130 nM and 149 nM and 209 nM.
